Reference: US20220401514A1, “ANTIMICROBIAL, BACTERIOPHAGE-DERIVED POLYPEPTIDES AND THEIR USE AGAINST GRAM-NEGATIVE AND ACID-FAST BACTERIA” (CONTRAFECT CORPORATION, priority 2019, published 2022)
Like-named read-outs stand apart in the source and are kept apart here.

Assays:
LPS = experiment: Endotoxin neutralization, limulus amoebocyte lysate (LAL) enzyme assay, LPS binding; format: biochemical; conditions: LPS 0.8 EU/mL
Procedure: CHEM. […] The standard reference samples contained only LPS dissolved in pyrogen-free water. Solutions were mixed well and incubated at 24° C. for 1 hour, and the manufacturers' test procedure for quantitative detection of endotoxins was followed.

[1] = test system: P. aeruginosa strain CFS-1292; format: cell-based, Pseudomonas aeruginosa
[2] = test system: P. aeruginosa strain CFS 1292; format: cell-based, Pseudomonas aeruginosa
[3] = test system: P. aeruginosa strain CFS-1292; experiment: Time-kill assay in CAA with 2.5% human serum; format: cell-based, Pseudomonas aeruginosa; conditions: for Loss of bacterial viability: CAA with […] human serum, vs untreated controls
Procedure: Time-Kill Assay of Chp Peptide Activity. […] Exponential phase bacteria were then diluted 1:100 into CAA/HuS and peptide was added at a final concentration of either 1 or 10 μg/mL. Control cultures were included with no peptide added (i.e., buffer control).

[4] = test system: Acinetobacter baumannii isolates; experiment: MIC against CDC Acinetobacter baumannii panel (n = 41); format: cell-based
Procedure: MIC values were determined using the methodology described above, i.e., the standard broth microdilution reference method defined by CLSI.

[5] = test system: A. baumannii strain BAA-747 persister cells; experiment: Activity against persister cells, A. baumannii; format: cell-based, Acinetobacter baumannii
[6] = test system: Klebsiella pneumoniae strain 1139; experiment: Checkerboard assay (FICI) with antibiotics, K. pneumoniae; format: cell-based
Method in brief: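 Antibiotics in 2-fold dilutions across one axis against Chp peptide dilutions on the other. FICI = MIC in combination/MIC alone for antibiotic plus the same ratio for peptide; minimum FICI used. Synergy at FICI ≤0.5, strongly additive >0.5 to <1, additive 1-<2, antagonistic ≥2.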

[7] = test system: eight different strains of five species of Gram-negative bacteria; experiment: MBEC in eight strains of five species of Gram-negative bacteria; format: cell-based; conditions: for MBEC: 24 h biofilm in LB, 16 h treatment
Procedure: Determination of Minimal Biofilm Eradicating Concentrations (MBEC). […] The OD600 of extracted crystal violet was determined. The MBEC value of each sample was determined as the minimum drug concentration required to remove >95% of biofilm biomass as assessed by crystal violet quantitation (in comparison to untreated controls).
MBEC values were likewise determined for Chp2, Chp2-M1, and Chp10-M1 in eight different strains of five species of Gram-negative bacteria. […] The films were then washed and stained with crystal violet to visualize the MBEC.

MRLKMARRRYRLPRRRSRRLFSRTALRMHPRNRLRRIMRGGIRF [Chp2]
LPS binding (LPS; […]-64 μg/mL, 24° C., 1 hour): demonstrate binding to LPS
% LPS Bound (LPS; peptide concentration 0.5 μg/mL): 28.7%
% LPS Bound (LPS; peptide concentration 1 μg/mL): 28.0%
% LPS Bound (LPS; peptide concentration 2 μg/mL): 27.0%
% LPS Bound (LPS; peptide concentration 4 μg/mL): 29.3%
% LPS Bound (LPS; peptide concentration 8 μg/mL): 31.0%
% LPS Bound (LPS; peptide concentration 16 μg/mL): 40.8%
% LPS Bound (LPS; peptide concentration 32 μg/mL): 58.1%
% LPS Bound (LPS; peptide concentration 64 μg/mL): 71.0%
frequency (spontaneous resistance) ([1]; CAA media with agent at 4×MIC, resistant colonies after 48 hours / total CFUs): <1.25E−09
MIC ([1]; P. aeruginosa CFS-1292, MIC underlying the 4×MIC selection): 0.25 µg/mL
Serial Passage MIC Day 0 ([2]; 21-day study, Day 0, duplicates (1),(2)): 0.25 µg/mL
Serial Passage MIC Day 21 ([2]; 21-day study, Day 21, duplicates (1),(2)): 0.25 µg/mL
Serial Passage MIC Day 0 (untreated) ([2]; Day 0, MIC of agent on untreated control culture): 0.25 µg/mL
Serial Passage MIC Day 0 ([2]; Day 0, cultures passaged with agent, duplicates (1),(2)): 0.25 µg/mL
Serial Passage MIC Day 1 (untreated) ([2]; Day 1, MIC of agent on untreated control culture): 0.25 µg/mL
Serial Passage MIC Day 1 ([2]; Day 1, cultures passaged with agent, duplicates (1),(2)): 0.25 µg/mL
Serial Passage MIC Day 2 (untreated) ([2]; Day 2, MIC of agent on untreated control culture): 0.25 µg/mL
Serial Passage MIC Day 2 ([2]; Day 2, cultures passaged with agent, duplicates (1),(2)): 0.25 µg/mL
Serial Passage MIC Day 3 (untreated) ([2]; Day 3, MIC of agent on untreated control culture): 0.25 µg/mL
Serial Passage MIC Day 3 ([2]; Day 3, cultures passaged with agent, duplicates (1),(2)): 0.25 µg/mL
Serial Passage MIC Day 4 (untreated) ([2]; Day 4, MIC of agent on untreated control culture): 0.25 µg/mL
Serial Passage MIC Day 4 ([2]; Day 4, cultures passaged with agent, duplicates (1),(2)): 0.25 µg/mL
Serial Passage MIC Day 5 (untreated) ([2]; Day 5, MIC of agent on untreated control culture): 0.25 µg/mL
Serial Passage MIC Day 5 ([2]; Day 5, cultures passaged with agent, duplicates (1),(2)): 0.25 µg/mL
Serial Passage MIC Day 6 (untreated) ([2]; Day 6, MIC of agent on untreated control culture): 0.25 µg/mL
Serial Passage MIC Day 6 ([2]; Day 6, cultures passaged with agent, duplicates (1),(2)): 0.25 µg/mL
Serial Passage MIC Day 7 (untreated) ([2]; Day 7, MIC of agent on untreated control culture): 0.25 µg/mL
Serial Passage MIC Day 7 ([2]; Day 7, cultures passaged with agent, duplicates (1),(2)): 0.25 µg/mL
Serial Passage MIC Day 8 (untreated) ([2]; Day 8, MIC of agent on untreated control culture): 0.25 µg/mL
Serial Passage MIC Day 8 ([2]; Day 8, cultures passaged with agent, duplicates (1),(2)): 0.25 µg/mL
Serial Passage MIC Day 9 (untreated) ([2]; Day 9, MIC of agent on untreated control culture): 0.25 µg/mL
Serial Passage MIC Day 9 ([2]; Day 9, cultures passaged with agent, duplicates (1),(2)): 0.25 µg/mL
change in MIC after 21 days ([2]; serial passage): no significant change
Loss of bacterial viability ([3]; 1 μg/mL, 1 hour): >3.5 log10 CFU/mL
Loss of bacterial viability ([3]; 1 μg/mL, 3 hours): >4 log10 CFU/mL
Loss of bacterial viability ([3]; 1 μg/mL, 24 hours): >4.8 log10 CFU/mL
Loss of bacterial viability ([3]; 10 μg/mL, 1 hour): >3.5 log10 CFU/mL
Loss of bacterial viability ([3]; 10 μg/mL, 3 hours): >4 log10 CFU/mL
Loss of bacterial viability ([3]; 10 μg/mL, 24 hours): >4.8 log10 CFU/mL
bacterial viability after treatment (time-kill) ([3]; 1, 3 and 24 hours, 1 μg/mL and 10 μg/mL, CAA + […] human serum): multi-log fold decreases
MIC50 ([4]; Actinobacter baumannii panel): 0.5 µg/mL
MIC90 ([4]; Actinobacter baumannii panel): 1 µg/mL
MIC ([4]; CDC Antibiotic-Resistant Bank No. 0273): 1 µg/mL
MIC ([4]; CDC Antibiotic-Resistant Bank No. 0274): 0.5 µg/mL
MIC ([4]; CDC Antibiotic-Resistant Bank No. 0275): 0.5 µg/mL
MIC ([4]; CDC Antibiotic-Resistant Bank No. 0276): 0.5 µg/mL
MIC ([4]; CDC Antibiotic-Resistant Bank No. 0277): 0.5 µg/mL
MIC ([4]; CDC Antibiotic-Resistant Bank No. 0278): 1 µg/mL
MIC ([4]; CDC Antibiotic-Resistant Bank No. 0279): 1 µg/mL
MIC ([4]; CDC Antibiotic-Resistant Bank No. 0280): 1 µg/mL
MIC ([4]; CDC Antibiotic-Resistant Bank No. 0281): 1 µg/mL
MIC ([4]; CDC Antibiotic-Resistant Bank No. 0282): 0.5 µg/mL
MIC ([4]; CDC Antibiotic-Resistant Bank No. 0283): 1 µg/mL
MIC ([4]; CDC Antibiotic-Resistant Bank No. 0284): 0.5 µg/mL
MIC ([4]; CDC Antibiotic-Resistant Bank No. 0285): 0.5 µg/mL
MIC ([4]; CDC Antibiotic-Resistant Bank No. 0286): 1 µg/mL
MIC ([4]; CDC Antibiotic-Resistant Bank No. 0287): 0.5 µg/mL
MIC ([4]; CDC Antibiotic-Resistant Bank No. 0288): 0.25 µg/mL
MIC ([4]; CDC Antibiotic-Resistant Bank No. 0289): 0.5 µg/mL
MIC ([4]; CDC Antibiotic-Resistant Bank No. 0290): 0.5 µg/mL
MIC ([4]; CDC Antibiotic-Resistant Bank No. 0291): 0.5 µg/mL
MIC ([4]; CDC Antibiotic-Resistant Bank No. 0292): 0.5 µg/mL
MIC ([4]; CDC Antibiotic-Resistant Bank No. 0293): 0.5 µg/mL
MIC ([4]; CDC Antibiotic-Resistant Bank No. 0294): 0.5 µg/mL
MIC ([4]; CDC Antibiotic-Resistant Bank No. 0295): 1 µg/mL
MIC ([4]; CDC Antibiotic-Resistant Bank No. 0296): 0.5 µg/mL
MIC ([4]; CDC Antibiotic-Resistant Bank No. 0297): 1 µg/mL
MIC ([4]; CDC Antibiotic-Resistant Bank No. 0298): 0.5 µg/mL
MIC ([4]; CDC Antibiotic-Resistant Bank No. 0299): 1 µg/mL
MIC ([4]; CDC Antibiotic-Resistant Bank No. 0300): 2 µg/mL
MIC ([4]; CDC Antibiotic-Resistant Bank No. 0301): 1 µg/mL
MIC ([4]; CDC Antibiotic-Resistant Bank No. 0302): 1 µg/mL
MIC ([4]; CDC Antibiotic-Resistant Bank No. 0303): 1 µg/mL
MIC ([4]; CDC Antibiotic-Resistant Bank No. 0304): 0.5 µg/mL
MIC ([4]; CDC Antibiotic-Resistant Bank No. 0305): 0.5 µg/mL
MIC ([4]; CDC Antibiotic-Resistant Bank No. 0306): 0.5 µg/mL
MIC ([4]; CDC Antibiotic-Resistant Bank No. 0307): 1 µg/mL
MIC ([4]; CDC Antibiotic-Resistant Bank No. 0308): 1 µg/mL
MIC ([4]; CDC Antibiotic-Resistant Bank No. 0309): 1 µg/mL
MIC ([4]; CDC Antibiotic-Resistant Bank No. 0310): 0.5 µg/mL
MIC ([4]; CDC Antibiotic-Resistant Bank No. 0311): 0.5 µg/mL
MIC ([4]; CDC Antibiotic-Resistant Bank No. 0312): 0.5 µg/mL
MIC ([4]; CDC Antibiotic-Resistant Bank No. 0313): 0.5 µg/mL
MIC Log10 (CFU/mL) Run #1 ([5]; A. baumannii BAA-747 persister cells, 1 hour at 37° C., Run #1, limit of detection 1.6-log10 CFU/mL): 1.5 Log10 (CFU/mL)
MIC Log10 (CFU/mL) Run #2 ([5]; A. baumannii BAA-747 persister cells, 1 hour at 37° C., Run #2, limit of detection 1.6-log10 CFU/mL): 2.2 Log10 (CFU/mL)
MIC Log10 (CFU/mL) Run #3 ([5]; A. baumannii BAA-747 persister cells, 1 hour at 37° C., Run #3, limit of detection 1.6-log10 CFU/mL): 1.5 Log10 (CFU/mL)
MIC Log10 (CFU/mL) Average ([5]; A. baumannii BAA-747 persister cells, average of 3 runs): 1.8 Log10 (CFU/mL)
Delta Log ([5]; A. baumannii BAA-747 persister cells, log10 CFU/mL reduction as compared to buffer): 3.1
log10 CFU/mL reduction as compared to buffer ([5]; A. baumannii persister cells, 1 hour at 37° C.): 3.1 log10 CFU/mL
FIC Index ([6]; Chp peptide combined with Azithromycin): 0.25
FIC Index ([6]; Chp peptide combined with Aztreonam): 0.563
FIC Index ([6]; Chp peptide combined with Colistin): 0.625
FIC Index ([6]; Chp peptide combined with Imipenem): 0.5
FIC Index ([6]; Chp peptide combined with Levofloxacin): 0.5
FIC Index ([6]; Chp peptide combined with Meropenem): 0.313
FIC Index ([6]; Chp peptide combined with Tobramycin): 0.5
Chp peptide FIC ([6]; combined with Azithromycin): 0.125
Chp peptide MIC in checkerboard ([6]; combined with Azithromycin): 0.0625 µg/mL
Chp peptide FIC ([6]; combined with Aztreonam): 0.0625
Chp peptide MIC in checkerboard ([6]; combined with Aztreonam): 0.3125 µg/mL
Chp peptide FIC ([6]; combined with Colistin): 0.5
Chp peptide MIC in checkerboard ([6]; combined with Colistin): 0.25 µg/mL
Chp peptide FIC ([6]; combined with Imipenem): 0.25
Chp peptide MIC in checkerboard ([6]; combined with Imipenem): 0.125 µg/mL
Chp peptide FIC ([6]; combined with Levofloxacin): 0.25
Chp peptide MIC in checkerboard ([6]; combined with Levofloxacin): 0.0625 µg/mL
Chp peptide FIC ([6]; combined with Meropenem): 0.0625
Chp peptide MIC in checkerboard ([6]; combined with Meropenem): 0.0625 µg/mL
Chp peptide FIC ([6]; combined with Tobramycin): 0.25
Chp peptide MIC in checkerboard ([6]; combined with Tobramycin): 0.125 µg/mL
MBEC ([7]; A. baumanni (ATCC BAA-747)): 0.5 µg/mL
MBEC ([7]; E. cloacae (CCUG 63317)): 2 µg/mL
MBEC ([7]; E. coli (ATCC 25922)): 2 µg/mL
MBEC ([7]; E. coli (ATCC 35329)): 4 µg/mL
MBEC ([7]; E. coli (EC2)): 2 µg/mL
MBEC ([7]; K. pneumoniae (ATCC 700603)): 4 µg/mL
MBEC ([7]; K. pneumoniae (KP1)): 2 µg/mL
MBEC ([7]; P. aeruginosa (ATCC 27853)): 0.25 µg/mL
antibiofilm activity (MBEC) ([7]; biofilms formed 24 hours in LB, treated 16 hours): potent antibiofilm activity
